Results from ChEMBL document CHEMBL6096689, “Structure-Guided Development of ClpP Agonists with Potent Therapeutic Activities against Staphylococcus aureus Infection” (J Med Chem, 2025).
Converted amounts (≈) assume the structure as drawn. The source made the active and inactive calls. The rule behind the calls is not given here.

Columns and labels:
[1] = biological target: T1, ATP-dependent Clp protease proteolytic subunit (Staphylococcus aureus (strain NCTC 8325), UniProt Q2G036); assay: Agonist activity at Staphylococcus aureus ClpP extracted from Escherichia coli BL21 (DE3) cells using alpha-casein as substrate assessed as substrate hydrolysis preincubated for 15 mins followed by substrate addition and measured after 2 hrs by SDS-PAGE analysis
T1 sequence (Q2G036 whole entry): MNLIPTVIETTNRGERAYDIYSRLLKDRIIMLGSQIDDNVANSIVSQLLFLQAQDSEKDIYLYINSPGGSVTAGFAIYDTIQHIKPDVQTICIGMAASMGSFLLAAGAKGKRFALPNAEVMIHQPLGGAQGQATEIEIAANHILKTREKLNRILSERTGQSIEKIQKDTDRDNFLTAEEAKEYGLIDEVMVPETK

[2] = system: Staphylococcus aureus; assay: microbe, parasite or virus in culture; assay type: functional; details: Newman, time 18 hrs
Description: Antibacterial activity against Staphylococcus aureus Newman assessed as inhibition of visible growth of bacteria incubated for 18 hrs by absorbance based analysis

[3] = Octanol/water partition coefficient, log P of the compound at pH 7.4 incubated for 24 hrs by LC-MS analysis; assay type: physicochemical
[4] = system: Staphylococcus aureus; assay: microbe, parasite or virus in culture; assay type: functional; details: USA300, time 18 hrs
Description: Antibacterial activity against methicillin-resistant Staphylococcus aureus USA300 assessed as inhibition of visible growth of bacteria incubated for 18 hrs by absorbance based analysis

[5] = system: Staphylococcus aureus; assay: microbe, parasite or virus in culture; assay type: functional; details: NRS-1, time 18 hrs
Description: Antibacterial activity against methicillin-resistant Staphylococcus aureus NRS-1 assessed as inhibition of visible growth of bacteria incubated for 18 hrs by absorbance based analysis

[6] = system: Staphylococcus aureus; assay: microbe, parasite or virus in culture; assay type: functional; details: NRS-70, time 18 hrs
Description: Antibacterial activity against methicillin-resistant Staphylococcus aureus NRS-70 assessed as inhibition of visible growth of bacteria incubated for 18 hrs by absorbance based analysis

[7] = system: Staphylococcus aureus; assay: microbe, parasite or virus in culture; assay type: functional; details: NRS-108, time 18 hrs
Description: Antibacterial activity against methicillin-resistant Staphylococcus aureus NRS-108 assessed as inhibition of visible growth of bacteria incubated for 18 hrs by absorbance based analysis

[8] = system: Staphylococcus aureus; assay: microbe, parasite or virus in culture; assay type: functional; details: NRS-271, time 18 hrs
Description: Antibacterial activity against methicillin-resistant Staphylococcus aureus NRS-271 assessed as inhibition of visible growth of bacteria incubated for 18 hrs by absorbance based analysis

[9] = system: Staphylococcus aureus; assay: microbe, parasite or virus in culture; assay type: functional; details: time 18 hrs
Description: Antibacterial activity against multidrug-resistant Staphylococcus aureus clinical isolate XJ009 assessed as inhibition of visible growth of bacteria incubated for 18 hrs by absorbance based analysis

[10] = system: Staphylococcus aureus; assay: microbe, parasite or virus in culture; assay type: functional; details: time 18 hrs; remark: listed apart in the source
Description: Antibacterial activity against multidrug-resistant Staphylococcus aureus clinical isolate XJ025 assessed as inhibition of visible growth of bacteria incubated for 18 hrs by absorbance based analysis

[11] = system: Staphylococcus aureus; assay: microbe, parasite or virus in culture; assay type: functional; details: time 18 hrs; remark: listed apart in the source
Description: Antibacterial activity against multidrug-resistant Staphylococcus aureus clinical isolate XJ049 assessed as inhibition of visible growth of bacteria incubated for 18 hrs by absorbance based analysis

[12] = system: Staphylococcus aureus; assay: microbe, parasite or virus in culture; assay type: functional; details: time 18 hrs; remark: listed apart in the source
Description: Antibacterial activity against multidrug-resistant Staphylococcus aureus clinical isolate XJ051 assessed as inhibition of visible growth of bacteria incubated for 18 hrs by absorbance based analysis

[13] = system: Staphylococcus aureus; assay: microbe, parasite or virus in culture; assay type: functional; details: time 18 hrs; remark: listed apart in the source
Description: Antibacterial activity against multidrug-resistant Staphylococcus aureus clinical isolate XJ052 assessed as inhibition of visible growth of bacteria incubated for 18 hrs by absorbance based analysis

[14] = system: Staphylococcus aureus; assay: Antibacterial activity against oxacillin-resistant Staphylococcus aureus clinical isolate XJ049 infected in female ICR mouse peritonitis model assessed as mouse survival at 50 mg/kg, ip pre-infected for 1 hrs followed by compound addition and measured after 5 days relative to control; assay type: functional; details: 120 h, time 5 day
[15] = Cytotoxicity against HEK293T/17 cells by MTT assay; assay type: toxicity, cell-based; details: human
[16] = Therapeutic index, ratio of IC50 for HEK293T/17 cells to MIC for Staphylococcus aureus Newman; assay type: toxicity, cell-based; details: human, read-out: TI
[17] = biological target: T1, ATP-dependent Clp protease proteolytic subunit; assay: Agonist activity at Staphylococcus aureus ClpP extracted from Escherichia coli BL21 (DE3) cells using FITC-casein as substrate assessed as substrate hydrolysis preincubated for 60 mins followed by substrate addition and measured after 1 hrs by fluorescence based analysis
[18] = biological target: T2, ATP-dependent Clp protease proteolytic subunit, mitochondrial (Homo sapiens, UniProt Q16740); assay: Agonist activity at human ClpP extracted from Escherichia coli Rosetta (DE3) cells using alpha-casein as substrate assessed as substrate hydrolysis preincubated for 15 mins followed by substrate addition and measured after 2 hrs by SDS-PAGE analysis
[19] = biological target: ATP-dependent Clp protease proteolytic subunit (Escherichia coli (strain K12), UniProt P0A6G7); assay: Agonist activity at Escherichia coli ClpP using alpha-casein as substrate assessed as substrate hydrolysis preincubated for 15 mins followed by substrate addition and measured after 2 hrs by SDS-PAGE analysis
[20] = Agonist activity at Lactobacillus acidophilus ClpP using alpha-casein as substrate assessed as substrate hydrolysis preincubated for 15 mins followed by substrate addition and measured after 2 hrs by SDS-PAGE analysis
[21] = biological target: T3, ATP-dependent Clp protease proteolytic subunit (Staphylococcus aureus (strain NCTC 8325)) (UniProt Q2G036); assay: Induction of thermal stabilization of Staphylococcus aureus ClpP extracted from Escherichia coli BL21 (DE3) cells assessed as change in melting temperature at 10 uM incubated for 10 mins by DSF analysis
T3 sequence (whole entry): T1 sequence (Q2G036 whole entry)

[22] = biological target: T2, ATP-dependent Clp protease proteolytic subunit, mitochondrial; assay: Induction of thermal stabilization of human ClpP extracted from Escherichia coli Rosetta (DE3) cells assessed as change in melting temperature at 10 uM incubated for 10 mins by DSF analysis
[23] = Therapeutic index, ratio of IC50 for HK-2 cells to MIC for Staphylococcus aureus Newman; assay type: toxicity, cell-based; details: human, read-out: TI
[24] = Therapeutic index, ratio of IC50 for human ARH-77 cells to MIC for Staphylococcus aureus Newman; assay type: toxicity, cell-based; details: read-out: TI
[25] = system: Staphylococcus aureus; assay: Antibacterial activity against methicillin resistant Staphylococcus aureus NRS 119 by CLSI protocol based broth microdilution method; assay type: functional
[26] = Therapeutic index, ratio of IC50 for HEK293T/17 cells to MIC for methicillin resistant Staphylococcus aureus NRS 119; assay type: toxicity, cell-based; details: human, read-out: TI
[27] = system: Staphylococcus aureus; assay: Antibacterial activity against Staphylococcus aureus USA300 infected in Zebrafish infection model assessed as increase in zebrafish survival at 5 to 25 mg/kg pre-infected for 1 hrs followed by compound addition and measured after 5 days; assay type: functional, organism-based; details: dose 5-25 mg/kg, time 5.0 day

T2 sequence (Q16740 whole entry): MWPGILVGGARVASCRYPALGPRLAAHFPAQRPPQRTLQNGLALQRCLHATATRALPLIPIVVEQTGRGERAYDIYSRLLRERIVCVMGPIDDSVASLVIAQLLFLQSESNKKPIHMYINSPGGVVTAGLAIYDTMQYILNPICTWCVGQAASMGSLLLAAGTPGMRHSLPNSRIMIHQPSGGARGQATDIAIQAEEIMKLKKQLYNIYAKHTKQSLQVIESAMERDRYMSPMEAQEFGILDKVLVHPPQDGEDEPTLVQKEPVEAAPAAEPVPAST
ATP-dependent Clp protease proteolytic subunit (Escherichia coli (strain K12), UniProt P0A6G7), sequence (P0A6G7 whole entry): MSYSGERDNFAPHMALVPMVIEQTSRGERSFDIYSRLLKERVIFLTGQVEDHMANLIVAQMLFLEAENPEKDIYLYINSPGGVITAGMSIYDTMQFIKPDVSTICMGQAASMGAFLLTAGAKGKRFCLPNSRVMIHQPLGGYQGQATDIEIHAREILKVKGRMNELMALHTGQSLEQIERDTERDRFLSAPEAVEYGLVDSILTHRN

Row | SMILES | EC50 [1] [µM] | MIC [2] [µg/mL] | MIC [4] [µg/mL] | MIC [5] [µg/mL] | MIC [6] [µg/mL] | MIC [7] [µg/mL] | MIC [8] [µg/mL] | MIC [9] [µg/mL] | MIC [10] [µg/mL] | MIC [11] [µg/mL] | MIC [12] [µg/mL] | MIC [13] [µg/mL] | IC50 [15] [µg/mL] | selectivity ratio [16] | EC50 [17] [µM] | EC50 [18] [µM] | EC50 [19] [µM] | EC50 [20] [µM] | ΔTm [21] [°C] | ΔTm [22] [°C] | further results
1 | O=C1[C@H](Cc2cnc[nH]2)N2C(=O)CCN(C(=O)NCc3ccccc3)[C@H]2CN1Cc1cccc2ccccc12 | 0.5 | > 128 |  |  |  |  |  |  |  |  |  |  |  |  |  |  |  |  |  |  | logD at 24 h [3]: 3.09
2 | Cc1onc(-c2ccccc2)c1C(=O)N[C@@H]1C(=O)N2[C@@H]1SC(C)(C)[C@@H]2C(=O)O [OXACILLIN] |  | 0.13 (≈ 0.324 µM) | 0.25 (≈ 0.623 µM) | 64 (≈ 159 µM) | 0.25 (≈ 0.623 µM) | 0.25 (≈ 0.623 µM) | 32 (≈ 79.7 µM) | > 128 | 32 (≈ 79.7 µM) | > 128 | > 128 | > 128 |  |  |  |  |  |  |  |  | survival at 50 mg/kg [14]: 56%
3 | O=C1C2=C(CCN(Cc3ccccc3)C2)N2CCN=C2N1Cc1ccc(C(F)(F)F)cc1 | 1.2 | 0.002 (≈ 0.00454 µM) | 0.5 (≈ 1.14 µM) | 1 (≈ 2.27 µM) | 0.5 (≈ 1.14 µM) | 0.5 (≈ 1.14 µM) | 0.25 (≈ 0.568 µM) | 0.5 (≈ 1.14 µM) | 0.5 (≈ 1.14 µM) | 0.5 (≈ 1.14 µM) | 0.5 (≈ 1.14 µM) | 1 (≈ 2.27 µM) | 0.002 (≈ 0.00454 µM) | 0.04 | 0.72 | 1.9 | 3.97 | 1.14 | 15.9 | 23.5 | selectivity ratio [23]: 0.06; selectivity ratio [24]: 0.1
4 | C[C@@H]1C[C@H]2C(=O)OC[C@H](NC(=O)[C@H](Cc3cc(F)cc(F)c3)NC(=O)CCC3CCCCC3)C(=O)N3CCC[C@H]3C(=O)N3CCCC[C@H]3C(=O)N[C@@H](C)C(=O)N2C1 |  |  |  |  |  |  |  |  |  |  |  |  | 3.7 (≈ 4.63 µM) |  |  |  |  |  |  |  | MIC [25]: 0.4 µg/mL (≈ 0.501 µM); selectivity ratio [26]: 9.3
5 | CC[C@H](C)[C@H]1C(=O)N([C@H](C)c2cccc3ccccc23)C[C@@H]2N(C(=O)NCCCC(F)(F)F)CCC(=O)N12 | 1.2 | 2 (≈ 3.76 µM) | 1 (≈ 1.88 µM) | 2 (≈ 3.76 µM) | 1 (≈ 1.88 µM) | 1 (≈ 1.88 µM) | 1 (≈ 1.88 µM) | 2 (≈ 3.76 µM) | 2 (≈ 3.76 µM) | 2 (≈ 3.76 µM) | 1 (≈ 1.88 µM) | 2 (≈ 3.76 µM) |  | 25 | 0.72 | 31.4 | > 100 | > 100 | 13 | 3 | selectivity ratio [23]: 29; selectivity ratio [24]: 27; Activity [27]: Active
